Patent publication US20110201558A1, “Anaplerotic Therapy for Alzheimer's Disease and the Aging Brain” (Baylor Research Institute, priority 2009, published 2011)

Key:
mouse brain = details: infusion of propionyl-CoA precursors; compared with heptanoate, BKP, or propionate; cited from earlier work
[1] = design: species or system human; details: in vivo
From the text: For example, when using C7 as the source of odd-chain fatty acids these can be provided in the form of a triglyceride, e.g., tri-heptanoin. The triglyceride triheptanoin is provided in a concentration sufficient to provide a beneficial effect is most useful in this aspect of the present invention. The seven-carbon fatty acid may be provided, e.g.:
Goals have been set using 4 g/kg (within ideal body weight (IBW) range) for infants, children, and some adolescents. Goals have been set using 2 g/kg (within IBW range) for adolescents. Goals have been set using 2 g/kg (within IBW range) for adults; but toleration is 1-1.2 g per kg (which is 35% kcal of estimated needs).

[2] = system: patients with inherited disorders of fat and glycogen metabolism as well as pyruvate carboxylase deficiency; details: cited from earlier work

CCCCC(=O)O [pentanoate]
anaplerosis (stimulation of the CAC and energy production) in mouse brain (mouse brain): superior

CCCCCCC(=O)OCC(COC(=O)CCCCCC)OC(=O)CCCCCC [triheptanoin]
toleration [1]: 1-1.2 g per kg
indirect measures of energy metabolism in the brain and peripheral organs such as muscle and heart [2]: positive effects
